Experimental data: the supplement of paper PMC10307832

Experiments:
Assay in all cases: relative viability (nuclei count vs DMSO), 5 days (fraction); higher = more cells survive
TPCA-1 + Bortezomib = compound: C1=CC(=CC=C1C2=CC(=C(S2)NC(=O)N)C(=O)N)F [TPCA-1] + CC(C)C[C@H](NC(=O)[C@H](Cc1ccccc1)NC(=O)c1cnccn1)B(O)O [Bortezomib] (partner 0.002 µM)
How it was run: (§1)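 Relative viability is defined as nuclei in treated wells over nuclei in vehicle wells. Duplicate plates were run and medians reported. Lung cancer cell lines in 1536-well plates were dosed by pin tool one day after seeding, with one drug or with a fixed anchor-drug dose plus five library-drug doses (not always all listed) in √10 steps, and nuclei were counted after 5 days.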

[1] = compound: C[C@]12O[C@H](C[C@]1(O)CO)n1c3ccccc3c3c4c(c5c6ccccc6n2c5c31)CNC4=O [Lestaurtinib] + C[C@@H](Oc1cc(-c2cnn(C3CCNCC3)c2)cnc1N)c1c(Cl)ccc(F)c1Cl [Crizotinib] (partner 1 µM)
How it was run: as §1

Lestaurtinib + Foretinib = compound: C[C@]12O[C@H](C[C@]1(O)CO)n1c3ccccc3c3c4c(c5c6ccccc6n2c5c31)CNC4=O [Lestaurtinib] + COc1cc2c(Oc3ccc(NC(=O)C4(C(=O)Nc5ccc(F)cc5)CC4)cc3F)ccnc2cc1OCCCN1CCOCC1 [Foretinib] (partner 0.25 µM)
How it was run: as §1

Lestaurtinib + Lapatinib = compound: C[C@]12O[C@H](C[C@]1(O)CO)n1c3ccccc3c3c4c(c5c6ccccc6n2c5c31)CNC4=O [Lestaurtinib] + CS(=O)(=O)CCNCc1ccc(-c2ccc3ncnc(Nc4ccc(OCc5cccc(F)c5)c(Cl)c4)c3c2)o1 [Lapatinib] (partner 2 µM)
How it was run: as §1

Row | Cell Line | relative viability (TPCA-1 + Bortezomib; first compound 0.04 µM) | relative viability (TPCA-1 + Bortezomib; first compound 0.1265 µM) | relative viability (TPCA-1 + Bortezomib; first compound 0.4 µM) | relative viability (TPCA-1 + Bortezomib; first compound 1.265 µM) | relative viability (TPCA-1 + Bortezomib; first compound 4 µM) | relative viability ([1]; first compound 0.005 µM) | relative viability ([1]; first compound 0.01581 µM) | relative viability ([1]; first compound 0.05 µM) | relative viability ([1]; first compound 0.1581 µM) | relative viability ([1]; first compound 0.5 µM) | relative viability (Lestaurtinib + Foretinib; first compound 0.005 µM) | relative viability (Lestaurtinib + Foretinib; first compound 0.01581 µM) | relative viability (Lestaurtinib + Foretinib; first compound 0.05 µM) | relative viability (Lestaurtinib + Foretinib; first compound 0.1581 µM) | relative viability (Lestaurtinib + Foretinib; first compound 0.5 µM) | relative viability (Lestaurtinib + Lapatinib; first compound 0.005 µM) | relative viability (Lestaurtinib + Lapatinib; first compound 0.01581 µM) | relative viability (Lestaurtinib + Lapatinib; first compound 0.05 µM) | relative viability (Lestaurtinib + Lapatinib; first compound 0.1581 µM) | relative viability (Lestaurtinib + Lapatinib; first compound 0.5 µM)
1 | NCI-H2085 | 1.13 | 1.06 | 1.04 | 0.965 | 1.01 | 0.904 | 0.856 | 0.748 | 0.884 | 0.692 | 1.01 | 0.885 | 0.801 | 1.05 | 0.826 | 0.812 | 0.89 | 0.871 | 0.667 | 0.433
2 | PC-14 | 0.903 | 0.787 | 0.936 | 0.785 | 0.574 | 0.883 | 0.958 | 0.786 | 0.595 | 0.688 | 0.963 | 1.09 | 0.619 | 0.517 | 0.687 | 0.437 | 0.378 | 0.325 | 0.286 | 0.31
3 | HOP-62 | 0.641 | 0.707 | 0.832 | 0.738 | 0.57 | 0.905 | 0.919 | 0.972 | 0.721 | 0.18 | 1.15 | 1.33 | 1.08 | 1.06 | 0.343 | 0.889 | 1.17 | 1.02 | 1.08 | 0.93
4 | NCI-H2087 | 0.777 | 0.709 | 0.666 | 0.815 | 0.455 | 1.07 | 0.789 | 1.04 | 0.746 | 0.253 | 1.13 | 1.31 | 0.848 | 0.703 | 0.266 | 1.31 | 1.05 | 0.858 | 0.693 | 0.205
5 | PC-3 [JPC-3] | 0.896 | 0.812 | 0.833 | 0.792 | 0.851 | 0.975 | 1.15 | 1.01 | 1.15 | 0.693 | 1.01 | 1.1 | 0.938 | 0.902 | 0.558 | 0.425 | 0.498 | 0.456 | 0.414 | 0.335
6 | H3255 | 0.872 | 0.758 | 0.701 | 0.595 | 0.691 | 0.879 | 0.988 | 0.825 | 0.649 | 0.461 | 0.981 | 0.888 | 0.898 | 0.703 | 0.419 | 0.2 | 0.175 | 0.243 | 0.18 | 0.112
7 | EMC-BAC-2 | 1.12 | 1.07 | 1.11 | 1.08 | 0.932 | 0.722 | 0.76 | 0.599 | 0.569 | 0.264 | 0.908 | 0.737 | 0.78 | 0.382 | 0.29 | 0.921 | 0.968 | 0.865 | 0.669 | 0.309
8 | CAL-12T | 1.07 | 0.941 | 1.03 | 0.767 | 0.607 | 0.555 | 0.747 | 0.409 | 0.487 | 0.272 | 1.25 | 1.22 | 1.03 | 1.13 | 0.696 | 0.671 | 0.649 | 0.537 | 0.384 | 0.246
9 | NCI-H650 | 0.877 | 0.898 | 0.923 | 0.326 | 0.554 | 0.744 | 0.764 | 0.509 | 0.414 | 0.226 | 1.04 | 1.17 | 0.839 | 0.689 | 0.584 | 0.732 | 1.22 | 0.455 | 0.421 | 0.26
10 | EBC-1 | 0.521 | 0.617 | 0.618 | 0.59 | 0.479 | 0.182 | 0.225 | 0.183 | 0.184 | 0.175 | 0.109 | 0.105 | 0.114 | 0.11 | 0.112 | 0.164 | 0.236 | 0.251 | 0.234 | 0.185
11 | NCI-H1355 | 1.25 | 1.09 | 1.15 | 1.01 | 0.984 | 1.29 | 1.09 | 1.01 | 0.86 | 0.549 | 1.03 | 1.08 | 0.696 | 0.802 | 0.356 | 1.06 | 1.03 | 0.942 | 0.732 | 0.658
12 | NCI-H838 | 1.2 | 0.594 | 0.876 | 0.35 | 0.739 | 0.78 | 0.803 | 0.71 | 0.465 | 0.158 | 1.12 | 1.04 | 0.869 | 0.519 | 0.26 | 1.04 | 0.998 | 0.664 | 0.451 | 0.132
13 | NCI-H1650 | 0.26 | 0.219 | 0.204 | 0.203 | 0.208 | 0.901 | 1.13 | 0.841 | 1.29 | 0.308 | 1.03 | 1.24 | 1.37 | 1.26 | 0.694 | 0.987 | 0.95 | 0.817 | 0.512 | 0.157
14 | IA-LM | 0.834 | 0.804 | 0.847 | 0.781 | 0.559 | 0.862 | 1.06 | 1.14 | 0.921 | 0.415 | 1.37 | 1.4 | 1.53 | 1.22 | 0.59 | 1 | 1.06 | 0.91 | 0.905 | 0.396
15 | NCI-H1703 | 0.299 | 0.385 | 0.394 | 0.41 | 0.367 | 0.81 | 0.524 | 0.263 | 0.257 | 0.0934 | 0.322 | 0.305 | 0.27 | 0.315 | 0.252 | 1.07 | 1.09 | 0.597 | 0.278 | 0.123
16 | NCI-H322M | 1.18 | 1.17 | 1.36 | 1.24 | 1.27 | 0.931 | 0.919 | 0.495 | 0.482 | 0.41 | 0.935 | 1.02 | 0.523 | 0.609 | 0.45 | 0.555 | 0.567 | 0.416 | 0.424 | 0.525
17 | NCI-H661 | 0.651 | 0.662 | 0.986 | 0.753 | 0.501 | 1.01 | 0.84 | 0.97 | 0.927 | 0.676 | 1.02 | 0.935 | 1.02 | 0.933 | 0.421 | 0.466 | 0.608 | 0.444 | 0.444 | 0.323
18 | NCI-H2228 | 1.01 | 0.891 | 0.916 | 1.12 | 0.6 | 0.512 | 0.442 | 0.415 | 0.21 | 0.255 | 0.885 | 0.896 | 0.523 | 0.379 | 0.254 | 0.892 | 0.95 | 0.376 | 0.281 | 0.256
19 | NCI-H520 | 0.82 | 0.607 | 0.717 | 0.453 | 0.252 | 0.653 | 0.687 | 0.332 | 0.42 | 0.344 | 0.713 | 0.992 | 0.698 | 0.342 | 0.228 | 0.833 | 1 | 0.59 | 0.48 | 0.252
